This note sets out measurements from ChEMBL document CHEMBL3507680, “University of Dundee, Gates Library screen for HepG2 cell viability”.

This series is described as follows: Human HepG2 cell viability assay in 384 well format. The class given is toxicity, cell-based. Set-up: dose 125 nL, time 70.5 hour; concentration not given beside the values. Conditions: HepG2 cells, read-out: Inhibition.
For the compound `Cc1ccc(-n2ccnc2)c(C(=O)NCCOCC(F)(F)F)c1`, the cytotoxicity at 70.5 h is -8.14%.
On to `CCC(C)(C)C(=O)N1CCN(C2=NCC(C)S2)CC1` (stereo unspecified), for which the cytotoxicity at 70.5 h was -8.95%.
Consider `CC(C)n1cc2cc(NC(=O)Cn3cnnn3)ccc2n1`, for which the cytotoxicity at 70.5 h was -7.92%.
Turning to `Cc1ccc(CNC(=O)NC(C)CCS(C)(=O)=O)cc1F` (stereo unspecified), the cytotoxicity at 70.5 h is -7.34%.
For `O=C(c1ccncc1)N1CCN(c2ccc(F)cc2Cl)CC1` the value was 18.4%; for `CC(CCS(C)(=O)=O)NC(=O)NCc1ccc2ccccc2c1` (stereo unspecified), 5.09%.
For `CCN1C(=O)C2(CCCCC2)NC12CCSCC2` the value was -7.61%; for `O=C1CN(C(=O)C2CCOC2)CCN1Cc1ccc(Cl)cc1` (stereo unspecified), 23.8%.
For `O=C1CN(C(=O)C2CCCOC2)CCN1Cc1ccc(Cl)cc1` (stereo unspecified) the value was -5.9%; for `COc1ccc(CSCC(O)CO)c(Cl)c1` (stereo unspecified), 18.2%.
Regarding `OCC(O)CSCc1ccc(Cl)cc1Cl` (stereo unspecified), the cytotoxicity at 70.5 h turned out to be 0.304%.
As for `Cn1ccc2c(C(=O)N3CCC4(CCOC4)C3)cccc21` (stereo unspecified), the cytotoxicity at 70.5 h was 23.5%.
In the case of `Cc1ncsc1C(=O)N1CCN(Cc2ccccc2)CC1C` (stereo unspecified), the cytotoxicity at 70.5 h is 2.52%.
For `Cc1ncccc1CNCC1COC2(CCCCC2)O1` (stereo unspecified) the value was 27.5%.
Turning to `CC(C)OCCC(=O)Nc1cc(C(=O)N(C)C(C)C)ccc1Cl`, the cytotoxicity at 70.5 h is 4.24%.
As for `CC(NC(=O)NCc1ccccn1)c1cccs1` (stereo unspecified), the figure is -13.9%; as for `O=C(NCc1cccnc1N1CCCCC1)c1ccc2c(c1)OCO2`, -18.5%.
Turning to `Cn1cccc1C1CCCN1Cc1noc(C(C)(C)C)n1` (stereo unspecified), the cytotoxicity at 70.5 h was -21.2%.
As for `O=C(CCOc1ccccc1F)N1CCOCC1`, the figure is 44.2%; as for `CCCN(CCc1ccccn1)C(=O)Cn1cnnn1`, -23.7%; as for `CNc1cc2c(nn1)CCN(C(=O)c1ccccc1-n1cccn1)C2`, 47.8%.
For `CC(O)C1CCN(C(=O)CCOc2ccccc2F)CC1` (stereo unspecified) the value was -14.1%; for `O=C(Cn1cc(Cl)cn1)N1CCNC1=O`, 48.7%; for `Cc1nc(C)c(COc2ccc(S(=O)(=O)N(C)C)cc2)s1`, -22.5%.
For `O=C(Cn1cc(I)cn1)N1CCNC1=O` the value was -8.59%; for `CN(CCNC(=O)Nc1cnn(C)c1)Cc1ccc(F)cc1`, -20.9%.
Turning to `CN(CCNC(=O)Nc1ccn(C)n1)Cc1ccc(F)cc1`, the cytotoxicity at 70.5 h is -22.5%.
As for `Cc1cc(C(=O)NCCN2CCCCC2C)nn1C(C)(C)C` (stereo unspecified), the figure is -10.9%; as for `CC(C)(C)c1nc(CN2CCCC2c2nnc3ccccn23)no1` (stereo unspecified), -22.6%.
As to `Cc1cc(C2CCCN(CCc3ccc4c(c3)CCO4)C2)n[nH]1` (stereo unspecified), the cytotoxicity at 70.5 h was -8.81%.
As for `CN(CCc1ccccc1)c1cnn(C)c(=O)c1Br`, the cytotoxicity at 70.5 h was -15.5%.
As for `CCOCC(=O)Nc1nccn1Cc1ccc(Br)cc1`, the figure is -5.58%; as for `CN1CCN(c2ccc(CO)cc2F)CC1`, -8.87%.
For `COc1cccc(CC2CCCN2CC(N)=O)c1` (stereo unspecified) the value was -8.71%; for `CC(=O)NC1CCCN(Cc2ccc(-n3ccnc3)cc2)C1` (stereo unspecified), -4.74%.
As for `COc1cccc(C(O)CN2CCN(C(=O)c3ccsc3)CC2)c1` (stereo unspecified), the figure is -5.91%; as for `Cn1ccc(NC(=O)NC2CCCN(c3ccccc3Cl)C2=O)n1` (stereo unspecified), -0.238%; as for `Cc1ccc(N2CCCC(NC(=O)Nc3cnn(C)c3)C2=O)cc1` (stereo unspecified), 9.02%.
As for `CC(C)c1ccc(-n2cc(O)c(C(=O)N3CCC(C(N)=O)CC3)n2)cc1`, the cytotoxicity at 70.5 h was 0.806%.
Consider `Cc1cc(NC(=O)N(CCC#N)CCCN(C)C)ccc1F`, for which the cytotoxicity at 70.5 h is -2.44%.
As for `COCC(=O)Nc1nccn1Cc1ccc(Br)cc1`, the figure is -0.968%.
As for `NC(=O)CCNC(=O)NCC1(c2ccccc2Cl)CCC1`, the cytotoxicity at 70.5 h was -2.77%.
For the compound `CNC(=O)c1[nH]nc2ccc(I)cc12`, the cytotoxicity at 70.5 h is -3.31%.
Take `CCc1nnc(CN2CCC(C3CCCCCN3C(=O)C3CC3)CC2)o1` (stereo unspecified): the cytotoxicity at 70.5 h was -1.17%.
As for `Cn1cc(NC(=O)NC2CCCN(c3ccccc3Cl)C2=O)cn1` (stereo unspecified), the figure is -5.63%; as for `N#CCCCN1CCCC1Cc1ccccc1` (stereo unspecified), -3.84%; as for `COc1ccc(-c2noc(C(CC(C)C)N3CCCCC3=O)n2)cn1` (stereo unspecified), -0.898%.
With `Cc1cc(Br)ccc1C(=O)N(C)CCNS(C)(=O)=O`, the cytotoxicity at 70.5 h was -6.05%.
For `COc1ccccc1C(C)CC(=O)N1CC[C@H](O)C1` (stereo partly specified) the value was -1.27%; for `Cc1nn(C)c(C)c1C1CCCN1C(=O)Cc1cn2ccsc2n1` (stereo unspecified), 23.9%.
With `Cc1nc(CN2CCCC(Nc3ncnc4c3CCC4)C2)no1` (stereo unspecified), the cytotoxicity at 70.5 h is -7.99%.
For `Cn1nc(C(C)(C)C)cc1NC(=O)Cn1ccccc1=O`, the cytotoxicity at 70.5 h was -12%.
With `CC(C)(C)c1nc(CN(Cc2cccs2)C2CCS(=O)(=O)C2)cs1` (stereo unspecified), the cytotoxicity at 70.5 h was -2.81%.
As for `Cc1ccsc1CNC(=O)c1ccc(N2CCOC2=O)cc1`, the cytotoxicity at 70.5 h was -7.71%.
As for `N#Cc1ccc(N2CCCN(CC(=O)N3CCOCC3)CC2)cc1`, the figure is 21.1%.
As for `CC(NC(=O)NCCN1CCCCCC1=O)c1ccc(Cl)s1` (stereo unspecified), the figure is -10.6%.
Take `N#Cc1ccc(N2CCCN(CC(=O)N3CCNC(=O)C3)CC2)cc1`: the cytotoxicity at 70.5 h was found to be 3.9%.
For `COCCN1CCC(CNC(=O)C2(NC(C)=O)CCCCC2)CC1` the value was -8.37%.
As for `CNC(=O)CN1CCC(NC(=O)Cc2ccccc2OC(C)C)CC1`, the figure is -10.8%; as for `Cc1ccccc1C1(CNC(=O)c2ccc(S(C)(=O)=O)cc2)CC1`, 3.63%.
For `CCn1c(CN(C)CC(=O)N(C)C)nc2c(F)cccc21` the value was -11.7%; for `CC1CN(C(=O)c2cscn2)c2ccccc2S1` (stereo unspecified), 21%.
Turning to `Cc1nc(C(=O)N2CC(C)Sc3ccccc32)cs1` (stereo unspecified), the cytotoxicity at 70.5 h is -7.31%.
With `OCC(O)CSCc1cn(-c2ccc(Cl)cc2)nn1` (stereo unspecified), the cytotoxicity at 70.5 h was found to be 0.0879%.
For `CN(Cc1cccs1)C(=O)CN(C)C1CCc2ccccc21` (stereo unspecified) the value was -7.67%.
`COCCN1CCC(CNC(=O)C2(C#N)CCCC2)CC1`: the cytotoxicity at 70.5 h is 17.6%.
For `Cc1nc(C)n(Cc2cccc(NC(=O)N(C)CCC(C)O)c2)n1` (stereo unspecified) the value was -7.61%; for `CCC1(CNCc2ncc[nH]2)CCCC1`, -13.3%.
In the case of `O=C(c1ncoc1-c1ccco1)N1CCCN(c2ncccn2)CC1`, the cytotoxicity at 70.5 h is -12.9%.
For `CN(Cc1ccc(Cl)s1)C(=O)CN(C)C1CCc2ccccc21` (stereo unspecified) the value was -13.1%.
For `CNC(=O)N1C[C@H]2N(c3ncccn3)CCC[C@@]2(C(=O)NCC2CC2)C1` the value was 0.471%; for `CC(C)Nc1ncnc2c1CCN(C(=O)NCc1cccc(F)c1)CC2`, -7.17%; for `CO[C@@H]1CO[C@@]2(CCCN(C(=O)C3CC=CC3)C2)C1`, -1.96%.
Consider `O=C(NCc1ccccn1)[C@@]12CCO[C@@H]1CCN(c1ncccn1)C2`, for which the cytotoxicity at 70.5 h is -4.87%.
Take `CC(=O)N1CCC2(CC1)c1ncc(-c3cccnc3)n1CCN2C`: the cytotoxicity at 70.5 h came out at 0.401%.
As for `CC(=O)N1CCC2(CC1)c1ncc(-c3ccccc3)n1CCN2C`, the figure is -9.38%; as for `O=C(c1ccco1)N1CCC2(CCCN(c3ncc(F)cn3)C2)C1` (stereo unspecified), 13.2%; as for `CCCS(=O)(=O)N1C[C@@H](c2ccccc2)[C@@]2(CCNC2=O)C1`, 5.81%.
For `CC(C)Nc1nc(-c2ccccc2)nc2c1CCN(C(=O)CC#N)CC2` the value was -3.92%; for `COCC(=O)N1CCc2nc(NC(C)C)nc(NC(C)C)c2CC1`, -0.713%; for `CC(=O)N1CCO[C@@H]2CN(S(=O)(=O)C3CC3)C[C@@H]2C1`, -0.958%.
For `CCOC[C@@]12CCC[C@@H]1CN(C(=O)COc1ccccc1OC)C2` the value was -8.07%.
With `O=C(N[C@@H]1CN(Cc2ccoc2)C[C@@H]2CCCO[C@@H]21)C1CCC1`, the cytotoxicity at 70.5 h is -11.2%.
As for `CC(=O)N1CCOC2(CCN(C(=O)C3CC3)CC2)C1`, the figure is -10.3%.
`CCc1nnc(CN2CCC(C3CCCCCN3C(C)=O)CC2)o1` (stereo unspecified): the cytotoxicity at 70.5 h was 8.88%.
For `Cc1nccc(NCc2cncc3c2CCN(S(C)(=O)=O)C3)n1` the value was 1.9%; for `CN(Cc1ccco1)Cc1cncc2c1CCN(Cc1ccoc1)C2`, -8.02%; for `Cc1noc(C)c1CN1CCC2(CC1)NC(=O)CC2c1ccccc1` (stereo unspecified), 2.78%.
For `Cc1ccc(CN2CCC3(CC2)C(c2ccccc2)CC(=O)N3C)o1` (stereo unspecified) the value was 0.715%; for `CS(=O)(=O)N1CC[C@H]2OCC[C@@]2(C(=O)NCc2ccccn2)C1`, -2.32%; for `CCn1ncc2c1C(COC)N(C(=O)CCc1ccccc1)CC2` (stereo unspecified), 11.6%.
As to `CN1CCCN(C(=O)c2ccnn2-c2ccc3ccccn23)CC1`, the cytotoxicity at 70.5 h amounted to 12.9%.
For `O=C([C@H]1CCCO1)N1CCN(CCn2cccn2)c2ncccc2C1` the value was -5.29%.
For `Cc1cnc(CNC(=O)[C@@]23CCO[C@@H]2CCN(C2CCCC2)C3)cn1` the value was -1.73%; for `O=C(C1CCOC1)N1CCN(CCn2cccn2)c2ncccc2C1` (stereo unspecified), -1.8%.
As for `Cc1oncc1C(=O)N[C@@H]1CN(C2CCC2)C[C@@H]2CCCO[C@@H]21`, the figure is -0.67%; as for `O=C(COC[C@]12COC[C@H]1CN(C1CCC1)C2)N1CCCC1`, 3.04%; as for `CN(C)C1CCN(C(=O)c2ccnn2-c2ccc3ccccn23)CC1`, -5.01%.
For the compound `CC(C)CNC(=O)N1CCC2(CC1)OC(C(N)=O)Cn1ccnc12` (stereo unspecified), the cytotoxicity at 70.5 h was -4.1%.
As for `Cc1ccc(CN2CCC[C@]3(C(=O)O)CN(C)C[C@@H]3C2)s1`, the cytotoxicity at 70.5 h is -14.3%.
As for `c1cncc(COCc2cncc3c2CCN(Cc2ccoc2)C3)c1`, the figure is -9.45%.
